Columns and labels:
[1] = molecular target: T1, CRAF (Homo sapiens, UniProt P04049); test: CRAF kinase activity assay (ADP-Glo); type: biochemical; settings: Table 3; 10 μM ATP, kinase-dead MEK1 substrate
T1 construct: fused on or other part: GST tag (N-terminal according to the vendor's product)
Method: (§1) Compound preparation: solid samples of each substance in 1dram vials were suspended in DMSO (Fisher Scientific) at a stock concentration of 20 mM. Stocks were kept at −20° C. and protected from light. If solubility of the compound at 20 mM appeared to be an issue, the initial concentration of the DMSO stock was changed to 10 mM or 5 mM.
(§2) In vitro enzymatic reactions were used for evaluating compounds intrinsic activity against BRAF, CRAF and ARAF. For BRAF and CRAF, 0.375 nM of purified GST-tagged kinases (cat. No. B4062-10UG and cat. No. R1656-10UG respectively from Millipore Sigma) were incubated with 75 nM of kinase-dead MEK1 substrate (cat. No. 40075; BPS Bioscience) in the presence of 10 μM of Ultrapure ATP (cat. No. V9102; Promega; part V915A) with and without the test compound in a buffer containing 50 mM HEPES pH 7.5, 10 mM MgCl2, 1 mM EDTA, 0.01% Brij-35 and 2 mM DTT. Separate reactions were performed with the MEK1 substrate and ATP as a blank control. ARAF kinase reactions were rigorously the same with the exception that kinase concentration was raised to 3.75 nM (cat. No. 1768-0000-1; Reaction Biology).
(§3) For compound treatment, 5 μL/well of test substance solution are placed in a 384-well proxyplate (Perkin Elmer) and mixed with 2× concentrated kinase reactions. The dilution series is selected so that nine concentrations cover a range from 100 nM to 0.01 nM. […] The final concentration of DMSO in the assay is set at 0.05%.
(§4) BRAF and CRAF kinase reactions were carried out for a total of 2 hours at 30° C. and then stopped by 1/2 dilution in ADP-Glo Reagent (cat. No. V9102; Promega; part V912C). Reactions were then incubated for 1 h at room temperature before addition of one volume of Kinase Detection Reagent (cat. No. V9102; Promega; part V917A). Plates were then equilibrated at room temperature for 30 minutes before detection of luminescence on a Synergy Neo2 plate reader (Biotek). The effect of each compound dilution on BRAF and CRAF kinase activity was expressed as % inhibition and calculated as follows. First, the internal 100% inhibition control (average of luminescence in kinase reactions comprising kinase dead MEK1 substrate alone) was subtracted from each data point. The average of DMSO (vehicle) controls (set as 0% inhibition) was established and used to calculate % inhibition:
(§5) IC50 values were obtained by plotting the kinase inhibition values and fitting the dose-activity curves using a log(agonist) versus response—variable slope (four parameters) function using either GraphPadPrism (V7.0) or Dotmatics Screening Ultra platform. Standards included in the ARAF kinase assay were Belvarafenib (MedChem Express cat. No. HY-109080; CAS No. 1446113-23-0), LXH254 (MedChem Express cat. No. HY-112089; CAS No. 1800398-38-2) and BGB283 (cat. No. HY-18957; CAS No. 1446090-79-4).

[2] = system: pERK, HCT116 cells; test: Phospho-ERK inhibition, AlphaLISA p-ERK 1/2, HCT-116; type: cell-based, human; settings: Table 3; for IC50: HCT116 cells (KRAS G13D), 1 h treatment; for HCT116 pERK (Ymin %): lowest % inhibition value of the pERK IC50 curve, above −20% = no paradoxical induction
Method: All cancer cell lines (A375, A101D, A2058, RKO, HT29 SK-MEL 30, IPC298, HepG2, HCT-116, Lovo, SW620, SW480, NCI-H358, NCI-H2122, Calu-6, NCIH2087, NCIH1755, NCIH1666 and Mewo) were obtained from ATCC and cultured in RPM1-1640 medium (Gibco) supplemented with 5% heat inactivated fetal bovine serum (FBS, Wisent) at 37° C. under 5% CO2. Cells were maintained in T175 flasks (Greiner). They were passaged by removing the culture medium, washing once in 10 mL of room temperature Phosphate Buffered Saline (PBS; Wisent) and incubating at 37° C. with 2 mL of 0.05% Trypsin (Thermo-Fisher). Trypsin was then inactivated by adding complete growth medium and the cells were then replated in a T175 culture dish at the appropriate dilution. All cell lines were routinely tested for mycoplasma contamination. Tissue type and mutational status of each cell line can be found in Table B.
(c) Measurement of Phospho-ERK Inhibition in Cultivated Human Cancer Cell Lines by the AlphaLISA® SureFire® Ultra™ p-ERK 1/2 (Thr2O2/Tyr204)
AlphaLISA® SureFire® Ultra™ p-ERK 1/2 (Thr202/Tyr204) analysis was conducted on cells plated in 100 μL of complete RPMI-1640 growth medium in 96-well flat-bottomed transparent dishes (Costar) at a density indicated in Table C. Cells were maintained overnight at 37° C. under 5% CO2 before treatment with compounds' dilution series for one hour. The cell density in cells/cm^2 corresponds to cell number divided by the area of one well of a 96-well plate (0.143 cm^2).
In a dilution series 100 μL/well of test substance dilution prepared in complete RPMI-1640 growth media was added to the cells. The dilution series is selected so that ten concentrations cover a range from 10 μM to 0.33 nM. If necessary, the initial concentration of 10 μM is increased to 100 μM or lowered to 1 μM (as in the case of A375 and H1666 cells, which are generally more sensitive to the compounds) and further dilution is carried out accordingly. The final concentration of DMSO in the assay is set at 0.5%.
After treatment, media was removed, and cells were lysed in 50 μL of 1× AlphaScreen Ultra Lysis Buffer (Perkin Elmer). The AlphaLISA® SureFire® Ultra™ p-ERK 1/2 (Thr202/Tyr204) (PerkinElmer) reactions were performed with 5 μL of cell lysate according to the manufacturer's specifications in 384-well proxyplates (Perkin Elmer) followed by overnight incubation of the reactions at room temperature in a humidified chamber. After completion of the reactions, the signals were recorded on an EnVision plate reader (Perkin Elmer) using built in AlphaLISA® settings.
The effect of each compound dilution on the pERK signal was expressed in % inhibition and calculated as follows. An internal 100% inhibition control (1 μM trametinib, cat. No. HY-10999; MedChem Express; CAS No. 871700-17-3) was included in each plate and used as a measure of pERK background. First, the value obtained for trametinib was subtracted from each data point. The average of DMSO (vehicle) controls (set as 0% inhibition) was established and used to calculate % inhibition:
The ability of each compound to inhibit pERK signal was expressed as an IC50 value obtained by plotting the inhibition values for each data point of a dilution series and fitting the obtained curves using a log(agonist) versus response—variable slope (four parameters) function using GraphPadPrism (V7.0) or Dotmatics Screening Ultra platform.
When present, paradoxical pERK induction is inferred from the negative % inhibition values observed in the pERK IC50 curves of a compound.

[3] = molecular target: T2, BRAF (Homo sapiens, UniProt P15056); test: BRAF kinase activity assay (ADP-Glo); type: biochemical; settings: Table 3; 10 μM ATP, kinase-dead MEK1 substrate
T2 construct: GST; purchased Millipore Sigma B4062-10UG
T2 sequence (P15056 whole entry): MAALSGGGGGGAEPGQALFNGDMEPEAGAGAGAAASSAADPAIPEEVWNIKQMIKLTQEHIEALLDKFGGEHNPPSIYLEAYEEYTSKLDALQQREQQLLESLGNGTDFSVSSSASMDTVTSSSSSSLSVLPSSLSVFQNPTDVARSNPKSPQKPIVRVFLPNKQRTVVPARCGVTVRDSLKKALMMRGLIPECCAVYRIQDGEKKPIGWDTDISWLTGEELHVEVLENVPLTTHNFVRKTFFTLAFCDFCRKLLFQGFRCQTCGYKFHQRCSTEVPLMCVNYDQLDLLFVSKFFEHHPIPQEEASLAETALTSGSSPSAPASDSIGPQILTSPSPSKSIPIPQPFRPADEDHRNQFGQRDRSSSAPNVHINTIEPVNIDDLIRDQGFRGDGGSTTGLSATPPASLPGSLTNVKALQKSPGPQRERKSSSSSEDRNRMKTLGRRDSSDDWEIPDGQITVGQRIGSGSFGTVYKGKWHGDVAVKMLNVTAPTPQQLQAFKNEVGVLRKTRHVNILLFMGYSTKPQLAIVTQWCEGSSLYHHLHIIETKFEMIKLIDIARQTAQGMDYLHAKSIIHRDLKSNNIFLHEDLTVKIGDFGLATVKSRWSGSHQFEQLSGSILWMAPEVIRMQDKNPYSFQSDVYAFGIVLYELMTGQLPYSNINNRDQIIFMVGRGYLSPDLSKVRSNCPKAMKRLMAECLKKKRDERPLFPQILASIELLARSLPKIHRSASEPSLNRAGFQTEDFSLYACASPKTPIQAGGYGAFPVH
Method: as §1, §2, §3, §4, §5

T1 sequence (P04049 whole entry Y340E/Y341E, form open, the tested form may be a part): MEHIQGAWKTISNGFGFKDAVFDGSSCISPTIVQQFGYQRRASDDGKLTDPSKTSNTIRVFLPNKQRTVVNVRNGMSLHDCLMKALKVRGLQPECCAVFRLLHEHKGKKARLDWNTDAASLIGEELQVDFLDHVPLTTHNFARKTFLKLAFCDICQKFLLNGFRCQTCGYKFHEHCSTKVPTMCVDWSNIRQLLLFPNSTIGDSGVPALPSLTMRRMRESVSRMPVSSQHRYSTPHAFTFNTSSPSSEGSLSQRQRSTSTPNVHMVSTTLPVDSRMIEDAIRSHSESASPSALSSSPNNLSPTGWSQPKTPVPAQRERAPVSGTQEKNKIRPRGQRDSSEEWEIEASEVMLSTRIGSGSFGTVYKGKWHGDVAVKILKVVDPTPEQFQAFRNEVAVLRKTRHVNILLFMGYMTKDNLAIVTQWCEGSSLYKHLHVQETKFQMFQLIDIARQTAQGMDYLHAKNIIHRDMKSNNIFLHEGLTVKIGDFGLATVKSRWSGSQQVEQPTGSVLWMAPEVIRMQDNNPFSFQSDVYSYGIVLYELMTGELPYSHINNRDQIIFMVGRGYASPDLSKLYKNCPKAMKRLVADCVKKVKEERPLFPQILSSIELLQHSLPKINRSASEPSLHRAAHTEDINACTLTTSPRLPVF

IC50 [1]	IC50 [3]	IC50 ([2]; Homo sapiens, HCT-116)	SMILES	IC50 [2]	HCT116 pERK (Ymin %) [2]
< 10 nM	1 to 10 nM	–	Cc1ncn(-c2nc3c(Nc4c(F)ccc(NS(=O)(=O)c5cccc(F)c5C)c4F)ncnc3s2)c1C [Example 1]	< 500 nM	−11%
< 10 nM	1 to 10 nM	–	Nc1cccc2c1ncn2-c1nc2c(Nc3c(F)ccc(NS(=O)(=O)c4cccc(Cl)c4Cl)c3F)ncnc2s1 [Example 3]	< 500 nM	−9%
< 10 nM	1 to 10 nM	500 to 1000 nM	O=S(=O)(Nc1ccc(F)c(Nc2ncnc3sc(-n4cnc5ccccc54)nc23)c1F)c1cccc(Cl)c1Cl [Example 4, N-[3-[[2-(benzimidazol-1-yl)thiazolo[5,4-d]pyrimidin-7-yl]amino]-2,4-difluoro-phenyl]-2,3-dichloro-benzenesulfonamide]	–	–
< 10 nM	1 to 10 nM	–	Cc1c(Cl)cccc1S(=O)(=O)Nc1ccc(F)c(Nc2ncnc3sc(-n4cnc5c(N)cccc54)nc23)c1F [Example 5]	< 500 nM	−6%
< 10 nM	1 to 10 nM	–	Cc1c(Cl)cccc1S(=O)(=O)Nc1ccc(F)c(Nc2ncnc3sc(-n4cnc5ccccc54)nc23)c1F [Example 6]	500 to 1000 nM	−4%
10 to 50 nM	1 to 10 nM	500 to 1000 nM	Cc1c(F)cccc1S(=O)(=O)Nc1ccc(F)c(Nc2ncnc3sc(-n4cnc5c(-c6cccnc6)cccc54)nc23)c1F [Example 8]	–	–
10 to 50 nM	1 to 10 nM	1000 to 10000 nM	CN1CCN(S(=O)(=O)c2cn(-c3nc4c(Nc5c(F)ccc(NS(=O)(=O)c6cccc(Cl)c6Cl)c5F)ncnc4s3)c3ccccc23)CC1 [Example 12]	–	–
10 to 50 nM	1 to 10 nM	–	COc1ccc(S(=O)(=O)Nc2ccc(F)c(Nc3ncnc4sc(-n5cnc6ccccc65)nc34)c2F)c(C)c1F [Example 16]	500 to 1000 nM	−8%
10 to 50 nM	1 to 10 nM	1000 to 10000 nM	O=S(=O)(Nc1ccc(F)c(Nc2ncnc3sc(-n4cnc5c(C(F)(F)F)cccc54)nc23)c1F)c1cccc(Cl)c1Cl [Example 17]	–	–

SMILES	IC50 [1]	IC50 [3]	IC50 ([2]; Homo sapiens, HCT-116)	IC50 [2]	HCT116 pERK (Ymin %) [2]
Cc1c(F)cccc1S(=O)(=O)Nc1ccc(F)c(Nc2ncnc3sc(-n4cnc5c(N)cccc54)nc23)c1F [Example 2]	10 to 50 nM	1 to 10 nM	–	< 500 nM	−1%
Cc1c(F)cccc1S(=O)(=O)Nc1ccc(F)c(Nc2ncnc3sc(-n4cnc5ccccc54)nc23)c1F [Example 7]	< 10 nM	1 to 10 nM	–	< 500 nM	−5%
O=S(=O)(Nc1ccc(F)c(Nc2ncnc3sc(-n4cnc5c(-c6cccnc6)cccc54)nc23)c1F)c1cccc(Cl)c1Cl [Example 9]	< 10 nM	1 to 10 nM	–	500 to 1000 nM	−9%
Cc1c(Cl)cccc1S(=O)(=O)Nc1ccc(F)c(Nc2ncnc3sc(-n4cnc5c(-c6cccnc6)cccc54)nc23)c1F [Example 10]	10 to 50 nM	1 to 10 nM	–	1000 to 10000 nM	−2%
CN(Cc1ccncc1)S(=O)(=O)c1cn(-c2nc3c(Nc4c(F)ccc(NS(=O)(=O)c5cccc(Cl)c5Cl)c4F)ncnc3s2)c2ccccc12 [Example 11]	< 10 nM	1 to 10 nM	–	1000 to 10000 nM	4%
COc1ccc(S(=O)(=O)Nc2ccc(F)c(Nc3ncnc4sc(-n5cnc6c(N)cccc65)nc34)c2F)c(C)c1Cl [Example 13]	10 to 50 nM	1 to 10 nM	–	1000 to 10000 nM	−14%
COc1ccc(S(=O)(=O)Nc2ccc(F)c(Nc3ncnc4sc(-n5cnc6ccccc65)nc34)c2F)c(C)c1Cl [Example 14]	10 to 50 nM	1 to 10 nM	–	1000 to 10000 nM	−14%
COc1ccc(S(=O)(=O)Nc2ccc(F)c(Nc3ncnc4sc(-n5cnc6c(N)cccc65)nc34)c2F)c(C)c1F [Example 15]	10 to 50 nM	1 to 10 nM	–	< 500 nM	−3%

From patent publication US20260137697A1, “THIAZOLO[5,4-D]PYRIMIDINE COMPOUNDS, COMPOSITIONS COMPRISING THEM AND USES THEREOF” (University de Montreal, priority 2022, published 2026)
